Measurements published in US10098350B2, “Fungicidal amides” (E. I. DU PONT DE NEMOURS AND COMPANY, priority 2013, dated 2018).

What was measured:
Assay type in all cases: in vivo
[1] = tested on: Botrytis cinerea; assay: Test A: tomato seedlings sprayed with test suspension, inoculated with Botrytis cinerea (gray mold), visual disease rating
Excerpt: General protocol for preparing test suspensions for Tests A-E: the test compounds were first dissolved in acetone in an amount equal to 3% of the final volume and then suspended at the desired concentration (in ppm) in acetone and purified water (50/50 mix by volume) containing 250 ppm of the surfactant Trem® 014 (polyhydric alcohol esters). The resulting test suspensions were then used in Tests A-E. Samples were applied to plants at either a 10 ppm (**), 40 ppm, 50 ppm (*) or 200 ppm (#) test solution to the point of run-off on the test plants with the equivalent of a rate of 40 g ai/ha, 160 g ai/ha, 200 g ai/ha, or 800 g ai/ha, respectively.
The test suspension was sprayed to the point of run-off on tomato seedlings. The following day the seedlings were inoculated with a spore suspension of Botrytis cinerea (the causal agent of gray mold on many crops) and incubated in a saturated atmosphere at 20° C. for 48 h, and moved to a growth chamber at 27° C. for 2 days, after which time visual disease ratings were made.
Results for Tests A-E are given in Table A. In the Table, a rating of 100 indicates 100% disease control and a rating of 0 indicates no disease control (relative to the controls). A dash (-) indicates no test results.

[2] = tested on: Erysiphe graminis f. sp. tritici; assay: Test E: wheat seedlings sprayed with test suspension, inoculated with Erysiphe graminis f. sp. tritici (wheat powdery mildew), visual disease rating
Method in brief: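 Wheat seedlings sprayed to run-off with compound suspension (acetone 3%, acetone/water 50/50 with 250 ppm Trem 014) at 10, 40, 50 or 200 ppm (40–800 g ai/ha), inoculated next day with spore dust. Incubated 7 or 8 days at 20° C, then rated visually as % disease control relative to controls (0–100).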

[3] = tested on: Puccinia recondite f. sp. tritici; assay: Test D: wheat seedlings sprayed with test suspension, inoculated with Puccinia recondite f. sp. tritici (wheat leaf rust), visual disease rating
Method in brief: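 Wheat seedlings were sprayed to run-off with compound suspended in 50/50 acetone–water containing 250 ppm Trem 014, at 10-200 ppm (40-800 g ai/ha). They were inoculated with rust spores the next day, then kept 24 h saturated at 20 °C and 6 days at 20 °C. Scores are visual % disease control versus untreated controls.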

[4] = tested on: Stagonospora nodorum (also known as Septoria nodorum); assay: Test B: wheat seedlings sprayed with test suspension, inoculated with Stagonospora nodorum (wheat glume blotch), visual disease rating
Method in brief: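 Compounds in acetone/water 50/50 with 250 ppm Trem 014 were sprayed to run-off on wheat seedlings at 10, 40, 50 or 200 ppm (40–800 g ai/ha). Plants were inoculated next day, held 48 h saturated at 20 °C, then 6 days in a growth chamber at 20 °C. Visual rating 0–100% disease control relative to controls.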

[5] = tested on: Septoria tritici; assay: Test C: wheat seedlings sprayed with test suspension, inoculated with Septoria tritici (wheat leaf blotch), visual disease rating
Method in brief: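 Wheat seedlings sprayed to run-off with compound suspended in acetone/water with 250 ppm Trem 014, at 10, 40, 50 or 200 ppm (40–800 g ai/ha). Inoculated with Septoria tritici spores the next day, held 48 h saturated at 24 °C, then 21 days at 20 °C. Visual rating 0–100% disease control relative to controls.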

[6] = Cmpd. No. unmarked, 100 = 100% disease control, 0 = no control relative to controls
[7] = Cmpd. No. marked '#' (other test rate; meaning of mark not shown)

Compound | Test A rating (% disease control) [1, 6] [%] | Test E rating (% disease control) [2, 6] [%] | Test D rating (% disease control) [3, 6] [%] | Test B rating (% disease control) [4, 6] [%] | Test C rating (% disease control) [5, 6] [%] | Test A rating (% disease control) [1, 7] [%] | Test E rating (% disease control) [2, 7] [%] | Test D rating (% disease control) [3, 7] [%] | Test B rating (% disease control) [4, 7] [%] | Test C rating (% disease control) [5, 7] [%]
Cc1ccc(CN(C(=O)c2cn(C)nc2C(F)F)C2CC2)cc1-n1ccc(C(F)(F)F)n1 [compound 27] | 0 | 21 | 31 | 92 | 38 | – | – | – | – | –
Cc1ccc(-n2ccc(C(F)(F)F)n2)cc1CN(C(=O)c1cn(C)nc1C(F)F)C1CC1 [compound 28] | 11 | 59 | 45 | 99 | 45 | – | – | – | – | –
Cc1cc(-n2ccc(C(F)(F)F)n2)cc(CN(C(=O)c2cn(C)nc2C(F)F)C2CC2)c1F [compound 29] | 0 | 48 | 68 | 94 | 83 | – | – | – | – | –
Cn1cc(C(=O)N(Cc2cc(-n3ccc(C(F)(F)F)n3)ccc2Cl)C2CC2)c(C(F)F)n1 [compound 30] | 0 | 64 | 31 | 60 | 87 | – | – | – | – | –
Cn1nc(C(F)F)c(C(=O)N(Cc2ccc(-n3cc(Br)cn3)cc2Cl)C2CC2)c1Cl [compound 31] | 0 | 0 | 98 | 0 | 42 | – | – | – | – | –
Cn1nc(C(F)F)c(C(=O)N(Cc2ccc(-n3cc(Br)cn3)cc2Cl)C2CC2)c1F [compound 34] | 23 | 95 | 100 | 100 | 94 | – | – | – | – | –
Cn1cc(C(=O)N(Cc2cccc(-n3ccc(C(F)(F)F)n3)c2C(F)(F)F)C2CC2)c(C(F)F)n1 [compound 41] | 0 | 40 | 23 | 0 | 94 | – | – | – | – | –
N-cyclopropyl-3-(difluoromethyl)-1-methyl-N-[[3-[3-(trifluoromethyl)-1H-pyrazol-1-yl]phenyl]methyl]-1H-pyrazole-4-carboxamide [Compound 9] | 0 | 0 | 0 | 0 | 43 | 0 | 43 | 0 | 0 | 96
